From patent US9751869B2, “LXR modulators” (BRISTOL-MYERS SQUIBB COMPANY, priority 2013, dated 2017)

Molecular target: T1, LXRβ (Homo sapiens, UniProt P55055)
T1 construct: Co-transfection expression plasmids, comprising full-length LXRα (pCMX-h LXRα or LXRβ (pCMX-hLXRβ)); expressed in transfected cells; host or cells: CV-1 African green monkey kidney cells, transient transfection with pCMX-hLXRβ
T1 sequence (P55055 1-460): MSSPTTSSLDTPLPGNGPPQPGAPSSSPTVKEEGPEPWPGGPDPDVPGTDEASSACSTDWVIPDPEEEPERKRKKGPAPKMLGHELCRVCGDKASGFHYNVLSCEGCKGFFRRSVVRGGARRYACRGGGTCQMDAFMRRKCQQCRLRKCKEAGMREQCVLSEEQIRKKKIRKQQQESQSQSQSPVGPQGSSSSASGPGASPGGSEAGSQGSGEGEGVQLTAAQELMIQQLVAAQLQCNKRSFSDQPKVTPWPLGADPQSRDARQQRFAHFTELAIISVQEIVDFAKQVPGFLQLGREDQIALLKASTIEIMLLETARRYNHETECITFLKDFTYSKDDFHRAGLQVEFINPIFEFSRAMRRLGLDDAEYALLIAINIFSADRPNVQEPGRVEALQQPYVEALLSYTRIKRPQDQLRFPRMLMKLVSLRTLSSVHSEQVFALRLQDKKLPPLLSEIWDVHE
T1 sequence (P19793 1-462 partner): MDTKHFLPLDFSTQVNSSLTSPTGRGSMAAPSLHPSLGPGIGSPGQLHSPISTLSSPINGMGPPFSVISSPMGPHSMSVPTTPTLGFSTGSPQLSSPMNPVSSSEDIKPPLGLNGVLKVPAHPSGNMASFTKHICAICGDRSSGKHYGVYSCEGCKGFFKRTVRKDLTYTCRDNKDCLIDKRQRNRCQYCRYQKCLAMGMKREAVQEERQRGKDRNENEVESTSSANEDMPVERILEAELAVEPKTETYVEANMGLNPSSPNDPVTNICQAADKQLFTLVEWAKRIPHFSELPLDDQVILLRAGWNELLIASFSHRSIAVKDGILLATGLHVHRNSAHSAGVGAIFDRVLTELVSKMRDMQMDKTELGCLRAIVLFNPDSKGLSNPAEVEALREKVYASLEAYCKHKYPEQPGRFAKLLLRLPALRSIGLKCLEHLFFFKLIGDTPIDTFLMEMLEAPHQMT
Assay: LXR/LXRE co-transfection assay (luciferase reporter) in CV-1 cells, LXRβ
Format: cell-based
Conditions: for EC50: CV-1 cells transfected with pCMX-hLXRβ and LXREx1-Tk-Luciferase, 20 hours incubation, read-out: LXRbeta agonism EC50; for Emax: read-out: LXRbeta % EFFICACY
How it was run: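 Luciferase read-out after 20 h compound treatment at 37 °C of CV-1 cells carrying transfected hLXRβ plus one-copy LXRE reporter, endogenous RXR partnering. Sigmoidal fit of 10-point half-log curves (4 wells each) gave EC50; % efficacy versus maximal response of the propionamide reference agonist.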

[1] = CV-1 cells, relative to maximum response of high control N-(3-((4-fluorophenyl)-(naphthalene-2-sulfonyl)amino)propyl)-2,2-dimethylpropionamide

Row | SMILES | EC50 | Emax [1] | LXRbeta % EFFICACY [1]
1 | Cn1nc(C(F)(F)C(N)=O)cc1-c1ccc(-c2cc(F)c(CO)c(S(C)(=O)=O)c2)cc1-n1nncc1-c1ccc(OC(F)(F)F)cc1 [Example 8, 2,2-difluoro-2-(5-(3′-fluoro-4′-(hydroxymethyl)-5′-(methylsulfonyl)-3-(5-(4-(trifluoromethoxy)phenyl)-1H-1,2,3-triazol-1-yl)biphenyl-4-yl)-1-methyl-1H-pyrazol-3-yl)acetamide] | 2320 nM | 79% | –
2 | Cc1nc(-c2ccc3c(c2)OC(F)(F)O3)c(-c2cc(-c3cc(F)c(CO)c(S(C)(=O)=O)c3)ccc2-c2cc(C(F)(F)C#N)nn2C)o1 [Example 47, 2-(5-(3-(4-(2,2-difluorobenzo[d][1,3]dioxol-5-yl)-2-methyloxazol-5-yl)-3′-fluoro-4′-(hydroxymethyl)-5′-(methylsulfonyl)biphenyl-4-yl)-1-methyl-1H-pyrazol-3-yl)-2,2-difluoroacetonitrile] | 663 nM | 72% | –
3 | Cc1nc(-c2ccc(OC(F)(F)F)cc2)c(-c2cc(-c3cccc(S(C)(=O)=O)c3)ccc2-n2ccc(COC(N)=O)n2)o1 [Example 374, (1-(3-(2-methyl-4-(4-(trifluoromethoxy)phenyl)oxazol-5-yl)-3′-(methylsulfonyl)-[1,1′-biphenyl]-4-yl)-1H-pyrazol-3-yl) methyl carbamate] | 421 nM | 47% | –
4 | Cc1nc(-c2ccc(OC(F)(F)F)cc2)c(-c2cc(-c3cccc(S(N)(=O)=O)c3)ccc2-c2cc(C(F)(F)F)nn2C)o1 [Example 126, 4′-(1-methyl-3-(trifluoromethyl)-1H-pyrazol-5-yl)-3′-(2-methyl-4-(4-(trifluoromethoxy)phenyl)oxazol-5-yl)-[1,1′-biphenyl]-3-sulfonamide] | 299 nM | 85% | –
5 | Cc1nc(-c2ccc(OC(F)(F)F)cc2)c(-c2cc(-c3cc(F)c(CO)c(S(C)(=O)=O)c3)ccc2-n2ccc(CC#N)n2)o1 [Example 370] | 125 nM | 86% | –
6 | Cc1nc(-c2ccc3c(c2)OC(F)(F)O3)c(-c2cc(-c3cc(F)c(CO)c(S(C)(=O)=O)c3)ccc2-c2cc(CS(=O)(=O)N(C)C)nn2C)o1 [Example 69, 1-(5-(3-(4-(2,2-difluorobenzo[d][1,3]dioxol-5-yl)-2-methyloxazol-5-yl)-3′-fluoro-4′-(hydroxymethyl)-5′-(methylsulfonyl)-[1,1′-biphenyl]-4-yl)-1-methyl-1H-pyrazol-3-yl)-N,N-dimethylmethanesulfonamide] | 160 nM | 24% | –
7 | Cc1nc(-c2ccc(OC(F)(F)F)cc2)c(-c2cc(-c3cccc(S(C)(=O)=O)c3)ccc2-n2cc(C#N)c(C3CC3)n2)o1 [Example 447, 3-cyclopropyl-1-(3-(2-methyl-4-(4-(trifluoromethoxy)phenyl)oxazol-5-yl)-3′-(methylsulfonyl)-[1,1′-biphenyl]-4-yl)-1H-pyrazole-4-carbonitrile] | 116 nM | 28% | –

These reach a lower EC50. Values come first.

Row | EC50 | Emax [1] | LXRbeta % EFFICACY [1] | SMILES
8 | 94 nM | 35% | – | Cc1nc(-c2ccc3c(c2)OC(F)(F)O3)c(-c2cc(-c3cccc(S(C)(=O)=O)c3)ccc2-c2cc(C#N)nn2C)o1 [Example 123, 5-(3-(4-(2,2-difluorobenzo[d][1,3]dioxol-5-yl)-2-methyloxazol-5-yl)-3′-(methylsulfonyl)-[1,1′-biphenyl]-4-yl)-1-methyl-1H-pyrazole-3-carbonitrile]
9 | 90 nM | 67% | – | Cc1nc(-c2cc(-c3cc(F)c(CO)c(S(C)(=O)=O)c3)ccc2-n2ccc(C(F)(F)F)n2)c(-c2ccc(Cl)c(OC(F)F)c2)o1 [Example 396, (3′-(5-(4-chloro-3-(difluoromethoxy)phenyl)-2-methyloxazol-4-yl)-3-fluoro-5-(methylsulfonyl)-4′-(3-(trifluoromethyl)-1H-pyrazol-1-yl)biphenyl-4-yl)methanol]
10 | 61 nM | 96% | – | COCC(F)(F)c1cc(-c2ccc(-c3cc(F)c(CO)c(S(C)(=O)=O)c3)cc2-n2nncc2-c2ccc(OC(F)(F)F)cc2)n(C)n1 [Example 17, [4′-{3-[1,1-difluoro-2-(methyloxy)ethyl]-1-methyl-1H-pyrazol-5-yl}-3-fluoro-5-(methylsulfonyl)-3′-(5-{4-[(trifluoromethyl)oxy]phenyl}-1H-1,2,3-triazol-1-yl)biphenyl-4-yl]methanol]
11 | 49 nM | – | 70% | Cc1nc(-c2ccc3c(c2)OC(F)(F)O3)c(-c2cc(-c3cccc(S(C)(=O)=O)c3)ccc2-c2cc(C(C)C#N)nn2C)o1 (stereo not shown) [Example 117, 2-(5-(3-(4-(2,2-difluorobenzo[d][1,3]dioxol-5-yl)-2-methyloxazol-5-yl)-3′-(methylsulfonyl)-[1,1′-biphenyl]-4-yl)-1-methyl-1H-pyrazol-3-yl)propanenitrile]
12 | 35 nM | 70% | – | Cc1nc(-c2ccc(OC(F)(F)F)cc2)c(-c2cc(-c3cc(F)c(CO)c(S(C)(=O)=O)c3)ccc2-n2nc(C(F)(F)F)cc2C)o1 [Example 332, (3-fluoro-4′-(5-methyl-3-(trifluoromethyl)-1H-pyrazol-1-yl)-3′-(2-methyl-4-(4-(trifluoromethoxy)phenyl)oxazol-5-yl)-5-(methylsulfonyl)biphenyl-4-yl)methanol]
13 | 32 nM | 99% | – | Cn1nc(C(F)(F)F)cc1-c1ccc(-c2cccc(S(C)(=O)=O)c2)cc1-n1nncc1-c1ccc(OC(F)(F)F)cc1 [Example 14, 1-{3′-(methylsulfonyl)-4-[1-methyl-3-(trifluoromethyl)-1H-pyrazol-5-yl]biphenyl-3-yl}-5-{4-[(trifluoromethyl)oxy]phenyl}-1H-1,2,3-triazole]
14 | 32 nM | 101% | – | Cc1cc(C(F)(F)F)nn1-c1ccc(-c2cc(F)c(CO)c(S(C)(=O)=O)c2)cc1-n1nncc1-c1ccc(OC(F)(F)F)cc1 [Example 301, [3-fluoro-5-(methylsulfonyl)-4′-[5-methyl-3-(trifluoromethyl)-1H-pyrazol-1-yl]-3′-(5-{4-[(trifluoromethyl)oxy]phenyl}-1H-1,2,3-triazol-1-yl)biphenyl-4-yl]methanol]
15 | 24 nM | 99% | – | Cc1nc(-c2ccc(OC(F)F)nc2)c(-c2cc(-c3cccc(S(C)(=O)=O)c3)ccc2-n2cc(Cl)c(C(F)(F)F)n2)o1 [Example 425]
16 | 16 nM | 93% | – | Cc1nc(-c2ccc(OC(F)(F)F)cc2)c(-c2cc(-c3cc(F)c(CO)c(S(C)(=O)=O)c3)ccc2-c2cc(C(F)(F)F)nn2C)o1 [Example 93, (3-fluoro-4′-(1-methyl-3-(trifluoromethyl)-1H-pyrazol-5-yl)-3′-(2-methyl-4-(4-(trifluoromethoxy)phenyl)oxazol-5-yl)-5-(methylsulfonyl)biphenyl-4-yl)methanol]
17 | 11 nM | 68% | – | Cc1nc(-c2ccc(OC(F)(F)F)cc2)c(-c2cc(-c3cnc(CO)c(S(C)(=O)=O)c3)ccc2-n2cc(Cl)c(C(F)(F)F)n2)o1 [Example 314, (5-(4-(4-chloro-3-(trifluoromethyl)-1H-pyrazol-1-yl)-3-(2-methyl-4-(4-(trifluoromethoxy)phenyl)oxazol-5-yl)phenyl)-3-(methylsulfonyl)pyridin-2-yl)methanol]
